# From PMC11769294, “(E)-1-(3-(3-Hydroxy-4-Methoxyphenyl)-1-(3,4,5-Trimethoxyphenyl)allyl)-1H-1,2,4-Triazole and Related Compounds: Their Synthesis and Biological Evaluation as Novel Antimitotic Agents Targeting Breast Cancer” (Pharmaceuticals, 2025)
# Where two headings read alike, the source gives them in different places.
# Key:
# [1] = test system: MCF-7 breast cancer cells; assay: alamarBlue cell viability assay; assay type: cell-based; details: Homo sapiens
# Method: Figure 5 Preliminary cell viability data for Series 1: (A) compounds 22a–22g and chalcone 20b and Series 2: (B) compounds 23a–e and chalcone 20b in MCF-7 breast cancer cells. Cell proliferation of MCF-7 cells was determined with an alamarBlue assay (seeding density 2.5 × 10^4 cells/mL per well for 96-well plates). Compound concentrations of either 1 or 0.1 μM for 72 h were used to treat the cells (in triplicate) with control wells containing vehicle ethanol (1% v/v). The mean value ± SEM for three independent experiments is shown. The positive controls used are CA-4 and phenstatin (1.0 μM and 0.1 μM). Statistical analysis was performed using One-way ANOVA with the Sidak multiple comparison test (***, p < 0.001).
# HL-60 cells were suspension cells and the seeding density for the viability assay was 25,000 cells/mL. MCF-7 cells (adherent) were cultured in Minimum Essential Media (MEM) with GlutaMAX™-I, supplemented with 1% (v/v) non-essential amino acids, 10% (v/v) fetal bovine serum (FBS), purchased from BD Biosciences (Edmund Halley Road, Oxford, UK), and 1% (v/v) penicillin/streptomycin 5000 U/mL. The MCF-7 cells used in the screening of the compounds during these experiments were mycoplasma-free. The seeding density of MCF-7 in the viability assay was 25,000 cells/mL and 50,000 cells/mL in the FACS assay. Normal breast cells (MCF-10A) (adherent) were cultured in Dulbecco’s Modified Eagle Medium: Nutrient Mixture F-12 (DMEM/F12; Gibco) supplemented with 5% horse serum (Invitrogen, Waltham, MA, USA), 20 ng/mL epidermal growth factor (Merck Millipore, Burlington, MA, USA), 0.5 μg/mL hydrocortisone (Sigma, Kanagawa, Japan), 100 ng/mL cholera toxin (Sigma), 10 μg/mL insulin (Sigma), and penicillin/streptomycin 5000 U/mL (1%) (Gibco, Waltham, MA, USA). […] MDA-MB-231 cells were cultured in Dulbecco’s Modified Eagle Medium, which was supplemented with 10% (v/v) fetal bovine serum (FBS) and 1% (v/v) penicillin/streptomycin 5000 U/mL. When not in use, all cells were kept in liquid nitrogen and frozen in a freezing media made of 90% FBS and 10% DMSO. All cells were grown in an atmosphere of 5% CO2/95% air in T75 culture flasks. The media was changed every 2–3 days and media was always prewarmed to 37 °C. All were sub-cultured every 3–4 days by trypsinization using TrypLE™ Express enzyme when confluence was reached to allow growth, prevent excessive cell death, and minimize the risk of infections derived by over-confluence. For the cell viability assay, the number of cells per milliliter was 25,000 cells/mL while the FACS assay utilized 50,000 cells/mL. Cells were maintained at 37 °C in 5% CO2 in a humidified incubator.
# The biochemical assays were performed in triplicate and on at least three independent occasions to facilitate the determination of mean values. For the viability assay, cells were grown until 80% confluent. Adherent cells such as MCF-7, MDA-MB-231, and MCF-10A were trypsinized to detach them from the flask, counted as previously described, and seeded in 96 well plates with a seeding density of 25,000 cells /mL (200 µL of suspension in each well so that the final number of cells per well was 5000) and 1 × 10^4 cells/well seeding density for suspension HL-60 cells. Adherent cells were incubated for 24 h after being seeded in the 96 well plate and treated on the following day, while suspension cells were treated on the same day of the seeding. In both cases, the incubation time after the treatment with the drug was 72 h. After 68 h incubation, the AlamarBlue was added (20 µL in each well) and the incubation time was completed. After 72 h, the change in color was measured by spectrofluorimetry at an excitation wavelength of 544 nm and emission wavelength of 590 nm. AlamarBlue is a cell viability indicator containing a compound called resazurin. AlamarBlue is water soluble, stable in culture media, non-toxic, and is permeable through the cell membrane. […]
# [2] = test system: tubulin in MCF-7 breast cancer cells; assay: Immunofluorescence confocal microscopy of microtubules; assay type: cell-based, human; details: 16 h, 22b 10 μM, paclitaxel and phenstatin 1 μM
# Method: Briefly, the MCF-7 cells were seeded at a density of 1 × 10^5 cells/mL on eight chamber glass slides (BD Biosciences). […] The cells were then washed in PBS, fixed for 20 min with 4% paraformaldehyde in PBS, and permeabilized in 0.5% Triton X-100. […] Images of the cells were obtained using Leica SP8 confocal microscopy (Wetzlar, Germany) with Leica application suite X software (Wetzlar, Germany). Experiments were performed on three independent occasions.
# The micrograph images were obtained with Leica SP8 confocal microscopy utilizing Leica application suite X software. Representative confocal images of three separate experiments are shown. The scale bar indicates 25 μm.
# [3] = test system: MCF-7 breast cancer cells; details: cited from earlier work
# MCF-7 cells = test system: MCF-7 cells; parameters: method as in PMID 33671674; details: 1 μM, cited from earlier work
# [4] = test system: MCF-7 breast cancer cells; parameters: method as in PMID 33671674; details: cited from earlier work
# [5] = test system: MDA-MB-231 breast cancer cells; parameters: method as in PMID 33671674; details: cited from earlier work
# [6] = test system: purified bovine brain tubulin; parameters: method as in PMID 33671674; details: 10 μM; cited from earlier work
# HL-60 cells = details: reported values; cited from earlier work
# [7] = test system: MDA-MB-231 breast cancer cells; details: reported values; cited from earlier work
# [8] = test system: K562 human chronic myelogenous leukemia cell line; parameters: method as in PMID 19837593; details: cited from earlier work
# [9] = MCF7, MCF-7, 1 μM, 72 h, read-out: viable cells
smiles,measurement,setting,value
COc1ccc(C(=O)c2cc(OC)c(OC)c(OC)c2)cc1O [phenstatin],viability at 1 µM,"[1]; MCF7, 72 h, read-out: viable cells",30%
same,effect on microtubule network,[2],depolymerization of tubulin
same,IC50,[3],34 nM
same,cells in G2/M phase,MCF-7 cells; 24 h,65%
same,cells in G2/M phase,MCF-7 cells; 48 h,57%
same,cells in G2/M phase,MCF-7 cells; 72 h,51%
same,cells in apoptosis (sub-G1),MCF-7 cells; 72 h,18%
same,total apoptosis,[4]; 0.1 μM,36.1%
same,total apoptosis,[4]; 0.5 μM,46%
same,total apoptosis,[5]; 0.1 μM,16.6%
same,total apoptosis,[5]; 0.5 μM,17.9%
same,reduction in the polymer mass vs vehicle,[6],10 fold
CC(=O)O[C@H]1C(=O)[C@@]2(C)[C@H]([C@H](OC(=O)c3ccccc3)[C@]3(O)C[C@H](OC(=O)[C@H](O)[C@@H](NC(=O)c4ccccc4)c4ccccc4)C(C)=C1C3(C)C)[C@]1(OC(C)=O)CO[C@@H]1C[C@@H]2O [paclitaxel],effect on microtubule network,[2],hyperpolymerization of tubulin
"COc1cc(/C=C/C(c2cc(OC)c(OC)c(OC)c2)n2cncn2)cc(OC)c1OC (stereo not shown) [Compound 22c, (E)-1-(1,3-Bis(3,4,5-trimethoxyphenyl)allyl)-1H-1,2,4-triazole]",viability at 1 µM,[1]; [9],70%
"C(=C\C(c1ccncc1)n1ccnc1)/c1c2ccccc2cc2ccccc12 (stereo not shown) [Compound 33b, (E)-4-(3-(Anthracen-9-yl)-1-(1H-imidazol-1-yl)allyl)pyridine]",viability at 1 µM,[1]; [9],92%
"COc1ccc(/C=C/C(=O)c2cc(OC)c(OC)c(OC)c2)cc1O [Compound 20b, (E)-3-(3-hydroxy-4-methoxyphenyl)-1-(3,4,5-trimethoxyphenyl)prop-2-en-1-one, reference compound]",IC50,"[1]; MCF7, MCF-7, 72 h",67 ± 17 nM
"COc1ccc(/C=C\c2cc(OC)c(OC)c(OC)c2)cc1O [CA-4, combretastatin CA-4]",viability at 1 µM,[1]; [9],24%
same,IC50,[3],4 nM
same,IC50,[3]; reported values,3.9 ± 0.32 nM
same,IC50,HL-60 cells,1.9 ± 0.5 nM
same,IC50,[7],43 nM
"COc1ccc(/C=C/C(c2cc(OC)c(OC)c(OC)c2)n2cncn2)cc1OC (stereo not shown) [Compound 22d, (E)-1-(3-(3,4-Dimethoxyphenyl)-1-(3,4,5-trimethoxyphenyl)allyl)-1H-1,2,4-triazole]",viability at 1 µM,[1]; [9],74%
"COc1ccc(C2CC(=O)c3cc(OC)c(OC)c(OC)c32)cc1O (stereo not shown) [Compound 24a, 3-(3-Hydroxy-4-methoxyphenyl)-4,5,6-trimethoxy-2,3-dihydro-1H-inden-1-one, reference compound]",viability at 0.1 µM,"[1]; MCF7, MCF-7, 0.1 μM, 72 h, read-out: viable cells",70%
same,viability at 1 µM,[1]; [9],35%
COc1ccc(/C=C(\C)C(=O)c2cc(OC)c(OC)c(OC)c2)cc1O [Compound 16a],IC50,[8],0.21 nM
